The text below walks through data of patent publication US7186710B2, “Phthalazinones” (Altana Pharma AG, priority 2001, dated 2007).

The target in data set [1] is T1, PDE4D3 (Homo sapiens, UniProt Q08499).
T1 construct: made in house; host or cells: SF21 insect cells (baculovirus, pBacPak9)
The experiment in a line: Inhibition of PDE4 activity, [3H]cAMP SPA enzyme assay with recombinant PDE4D3. It is filed as biochemical. As to conditions: recombinant PDE4D3 from SF21 insect cells, 0.5 μM cAMP; for IC50: read-out: PDE4 −logIC50 (converted). From the text: (§1) Method for Measuring Inhibition of PDE4 and PDE7 Activities
(§2) The cDNA for PDE7A1 (Genebank Acc. No. L12052) was isolated, using RT-PCR, from total cellular RNA derived from the T cell line CCRF-CEM and cloned into the cloning vector pCR2.1 (invitrogen, Groningen, NL) under standard conditions (the manufacturer's instructions). For expression in insect cells, the cDNA was subcloned into the baculo expression vector pCRBac (invitrogen, Groningen, NL). The cDNA for PDE4D3 was a gift of Marco Conti (Stanford University, USA). The ORF (Genebank Acc. No. U50159) was cut from the original pCMV5 vector with the restriction enzymes EcoRI and XbaI and subcloned in the expression vector pBacPak9 (Clontech, Palo Alto).
(§3) The recombinant baculoylrus was prepared by means of homologous recombination in SF9 insect cells. The expression plasmids were cotransfected with Bac-N-Blue (invitrogen, Groningen, NL) or Baculo-Gold DNA (Pharmingen, Hamburg) using a standard protocol (Pharmingen, Hamburg). Wt virus-free recombinant virus supernatants were selected using plaque assay methods. After that, high-titre virus supernatants were prepared by amplifying 3 times. PDEs were expressed in SF21 cells by infecting 2×10^6 cells/ml with an MOI (multiplicity of infection) between 2 and 5 in serum-free SF900 medium (Life Technologies, Paisley, UK). The cells were cultured at 28° C. for 48 hours, after which they were pelleted for 5–10 min at 1000 g and 4° C. In the case of PDE7A1 cells were cultured in spinner flasks at a rotational speed of 75 rpm.
(§4) The SF21 insect cells were resuspended, at a concentration of approx. 10^7 cells/ml, in ice-cold (4° C.) homogenization buffer (20 mM Tris, pH 8.2, containing the following additions: 140 mM NaCl, 3.8 mM KCl, 1 mM EGTA, 1 mM MgCl2, 1 mM β-mercaptoethanol, 2 mM benzamidine, 0.4 mM Pefablock, 10 μM leupeptin, 10 μM pepstatin A, 5 μM trypsin inhibitor) and disrupted by ultrasonication. The homogenate was then centrifuged for 10 min at 1000×g and the supernatant was stored at −80° C. until subsequent use (see below). The protein content was determined by the Bradford method (BioRad, Munich) using BSA as the standard.
(§5) PDE7A1 and PDE4D3 activities were inhibited by the said compounds in a modified SPA (scintillation proximity assay) test, supplied by Amersham Pharmacia Biotech (see procedural instructions “phosphodiesterase [3H]cAMP SPA enzyme assay, code TRKQ 7090”), carried out in 96-well microtitre plates (MTP's). The test volume is 100 μl and contains 20 mM Tris buffer (pH 7.4), 0.1 mg of BSA (bovine serum albumin)/ml, 5 mM Mg^2+, 0.5 μM cAMP (including about 50,000 cpm of [3H]cAMP), 2 μl of the respective substance dilution in DMSO and sufficient recombinant PDE (1000×g supernatant, see above) to ensure that 15–20% of the cAMP is converted under the said experimental conditions. After a preincubation of 5 min at 37° C., the reaction is started by adding the substrate (cAMP) and the assays are incubated for a further 15 min; after that, they are stopped by adding SPA beads (50 μl). In accordance with the manufacturer's instructions, the SPA beads had preylously been resuspended in water and then diluted 1:3 (v/v); the diluted solution also contains 3 mM IBMX. After the beads have been sedimented (>30 min), the MTP's are analyzed in commercially available measuring appliances and the corresponding IC50 values of the compounds for the inhibition of PDE activities are determined from the concentration-effect curves by means of non-linear regression.

Data set [2] has as its target T2, PDE7A1 (Homo sapiens, UniProt Q13946).
T2 construct: made in house; host or cells: SF21 insect cells (baculovirus, pCRBac)
The experiment in a line: Inhibition of PDE7 activity, [3H]cAMP SPA enzyme assay with recombinant PDE7A1. It is filed as biochemical. As to conditions: recombinant PDE7A1 from SF21 insect cells, 0.5 μM cAMP; for IC50: read-out: PDE7 −logIC50 (converted).
Text: as §1, §2, §3, §4, §5

Structures are written as SMILES.

T2 sequence (Q13946 whole entry): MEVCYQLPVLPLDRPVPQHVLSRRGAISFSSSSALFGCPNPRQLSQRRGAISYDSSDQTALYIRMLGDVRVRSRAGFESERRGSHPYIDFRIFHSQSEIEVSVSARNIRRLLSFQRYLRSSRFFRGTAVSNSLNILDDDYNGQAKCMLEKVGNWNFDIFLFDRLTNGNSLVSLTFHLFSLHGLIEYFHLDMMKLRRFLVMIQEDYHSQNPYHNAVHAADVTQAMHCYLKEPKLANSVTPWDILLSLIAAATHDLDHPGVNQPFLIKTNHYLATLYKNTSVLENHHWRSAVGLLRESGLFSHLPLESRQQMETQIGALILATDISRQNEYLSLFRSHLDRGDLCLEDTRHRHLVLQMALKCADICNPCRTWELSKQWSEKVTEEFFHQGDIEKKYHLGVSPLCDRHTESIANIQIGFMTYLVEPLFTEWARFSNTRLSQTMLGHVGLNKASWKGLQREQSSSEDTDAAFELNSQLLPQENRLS
T1 sequence (Q08499 1-673 isoform Q08499-2): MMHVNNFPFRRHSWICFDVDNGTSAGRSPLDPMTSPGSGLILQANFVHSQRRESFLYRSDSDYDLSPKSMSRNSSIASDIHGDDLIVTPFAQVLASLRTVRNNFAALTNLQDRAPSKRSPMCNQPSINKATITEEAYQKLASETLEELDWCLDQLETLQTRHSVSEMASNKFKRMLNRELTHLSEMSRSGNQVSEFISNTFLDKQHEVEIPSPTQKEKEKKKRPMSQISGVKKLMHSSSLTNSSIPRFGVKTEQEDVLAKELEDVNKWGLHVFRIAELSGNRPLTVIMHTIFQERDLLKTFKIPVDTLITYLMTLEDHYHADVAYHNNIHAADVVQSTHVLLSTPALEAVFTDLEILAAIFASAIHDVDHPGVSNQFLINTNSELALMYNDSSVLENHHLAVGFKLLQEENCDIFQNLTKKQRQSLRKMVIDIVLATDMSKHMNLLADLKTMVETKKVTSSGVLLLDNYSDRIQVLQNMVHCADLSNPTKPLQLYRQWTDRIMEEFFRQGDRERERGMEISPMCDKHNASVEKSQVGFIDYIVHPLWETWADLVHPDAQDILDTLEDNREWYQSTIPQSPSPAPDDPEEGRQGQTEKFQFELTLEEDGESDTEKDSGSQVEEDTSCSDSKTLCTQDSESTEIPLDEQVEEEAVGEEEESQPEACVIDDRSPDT

As for `COc1ccc(C2=NN(C3CCN(C(=O)N4CCOCC4)CC3)C(=O)[C@H]3CC=CC[C@@H]23)cc1Cl` (relative stereo) [Compound 1, (cis)-4-(3-Chloro-4-methoxy-phenyl)-2-[1-(1-morpholin-4-yl-methanoyl)-piperidin-4-yl]-4a,5,8,8a-tetrahydro-2H-phthalazin-1-one], the IC50 in data set [1] was 2.29 nM; in data set [2], 22.9 nM.
Usually melting point stands for the temperature, or range, at which the solid turns liquid. `COc1ccc(C2=NN(C3CCN(S(=O)(=O)c4ccc(C)cc4)CC3)C(=O)[C@H]3CC=CC[C@@H]23)cc1Cl` (relative stereo) [Compound 2, (cis)-4-(3-Chloro-4-methoxy-phenyl)-2-[1-(toluene-4-sulfonyl)-piperidin-4-yl]-4a,5,8,8a-tetrahydro-2H-phthalazin-1-one] yielded a melting point of 198 to 199 °C. Also, the IC50 in data set [1] was 3.98 nM. In addition, the IC50 in data set [2] is 107 nM.
For `COc1ccc(C2=NN(C3CCN(C(C)=O)CC3)C(=O)[C@@H]3CC=CC[C@H]23)cc1Cl` (relative stereo) [Compound 3, (cis)-2-(1-Acetyl-piperidin-4-yl)-4-(3-chloro-4-methoxy-phenyl)-4a,5.8,8a-tetrahydro-2H-phthalazin-1-one], in that order: 206 to 208 °C, 5.62 nM and 182 nM.
Consider `COc1ccc(C2=NN(C3CCN(Cc4ccncc4)CC3)C(=O)[C@H]3CC=CC[C@@H]23)cc1Cl.Cl` (relative stereo) [Compound 4, (cis)-4-(3-Chloro-4-methoxy-phenyl)-2-(1-pyridin-4-ylmethyl-piperidin-4-yl)-4a,5,8,8a-tetrahydro-2H-phthalazin-1-one hydrochloride], for which the melting point was 244 °C (dec.). For the same compound, the IC50 in data set [1] was 2.45 nM. Further, the IC50 in data set [2] was 41.7 nM.
For `COc1ccc(C2=NN(c3ccc(C(=O)N4CCN(CCN(C)C)CC4)cc3)C(=O)[C@H]3CC=CC[C@@H]23)cc1Cl.Cl.Cl` (relative stereo) [Compound 5, (cis)-4-(3-Chloro-4-methoxy-phenyl)-2-(4-{1-[4-(2-dimethylamino-ethyl)-piperazin-1-yl]-methanoyl}-phenyl)-4a,5,8,8a-tetrahydro-2H-phthalazin-1-one dihydrochloride], in that order: 198 to 201 °C, 13.8 nM and 66.1 nM.
Turning to `COc1ccc(C2=NN(c3nc(C)ccc3C(F)(F)F)C(=O)[C@H]3CC=CC[C@@H]23)cc1Cl` (relative stereo) [Compound 6], the “PDE4 −logIC50 (mol/l)” value in data set [1] worked out at 7.64. The “PDE7 −logIC50 (mol/l)” value in data set [2] stood at 7.08.
Turning to `COc1ccc(C2=NN(c3ccc4ncsc4c3)C(=O)[C@@H]3CC=CC[C@H]23)cc1Cl` (relative stereo) [Compound 7, (cis)-2-Benzothiazol-6-yl-4-(3-chloro-4-methoxy-phenyl)-4a,8,8a-tetrahydro-2H-phthalazin-1-one], the melting point was 156 to 157 °C. The IC50 in data set [1] is 8.13 nM. Moreover, in data set [2], the IC50 is 105 nM.
For `COc1ccc(C2=NN(c3ccc4c(c3)COC4=O)C(=O)[C@H]3CC=CC[C@@H]23)cc1Cl` (relative stereo) [Compound 8, (cis)-4-(3-Chloro-4-methoxy-phenyl)-2-(1-oxo-1,3-dihydro-isobenzofuran-5-yl)-4a,5,8,8a-tetrahydro-2H-phthalazin-1-one], in that order: 212 to 213 °C, 8.91 nM and 89.1 nM.
`COc1ccc(C2=NN(c3ccc4[nH]ncc4c3)C(=O)[C@H]3CC=CC[C@@H]23)cc1Cl.Cl` (relative stereo) [Compound 9, (cis)-4-(3-Chloro-4-methoxy-phenyl)-2-(1H-indazol-5-yl)-4a,5,8,8a-tetrahydro-2H-phthalazin-1-one hydrochloride] displayed a melting point of 196 to 197 °C. In data set [1], the IC50 was 2.57 nM. In data set [2], the IC50 is 28.8 nM.
For the compound `COc1ccc(C2=NN(C3CCCC3)C(=O)[C@H]3CC=CC[C@@H]23)cc1Cl` (relative stereo) [Compound 10, (cis)-4-(3Chloro-4-methoxy-phenyl)-2-cyclopentyl-4a,5,8,8a-tetrahydro-2H-phthalazin-1-one], the values for the IC50 in data set [1] and in data set [2] were 0.776 nM and 18.6 nM, respectively.
With `COc1ccc(C2=NN(CCCCn3ccnc3)C(=O)[C@H]3CC=CC[C@@H]23)cc1Cl.Cl` (relative stereo) [Compound 11, (cis)-4-(3-Chloro-4-methoxy-phenyl)-2-(4-imidazol-1-yl-butyl)-4a,5,8,8a-tetrahydro-2H-phthalazin-1-one hydrochloride], the melting point lay within 217 to 219 °C. Also, the IC50 in data set [1] was 0.891 nM. For the same compound, in data set [2], the IC50 was 269 nM.
For `COc1ccc(C2=NN(CCCCOc3ccc(C(=O)O)cc3)C(=O)[C@H]3CC=CC[C@@H]23)cc1Cl` (relative stereo) [Compound 12, (cis)-4-{4-[4-(3-Chloro-4-methoxy-phenyl)-1-oxo-4a,5,8,8a-tetrahydro-1H-phthalazin-2-yl]-butoxy}benzoic acid], in that order: 169 to 171 °C, 6.46 nM and 97.7 nM.
The corresponding values for `COc1ccc(C2=NN(c3ccc(C(=O)O)cc3)C(=O)[C@H]3CC=CC[C@@H]23)cc1F` (relative stereo) [Compound 13, (cis)-4-[4-(3-Fluoro-4-methoxy-phenyl)-1-oxo-4a,5,8,8a-tetrahydro-1H-phthalazin-2-yl]-benzoic acid] are 201 to 203 °C, 45.7 nM and 380 nM.
In the case of `COc1ccc(C2=NN(c3ccc(C(=O)O)cc3)C(=O)[C@H]3CC=CC[C@@H]23)cc1Cl` (relative stereo) [Compound 14, (cis)-4-{4-(3-chloro-4-methoxyphenyl)-1-oxo-4a,5,8,8a-tetrahydro-1H-phthalazin-2-yl}-benzoic acid], the melting point is 222 to 224 °C.
As to `COc1ccc(C2=NN(c3cc(C)c4c(C)nn(C)c4n3)C(=O)[C@H]3CC=CC[C@@H]23)cc1Cl` (relative stereo) [Compound 17, (cis)-4-(3-Chloro-4-methoxy-phenyl)-2-(1,3,4-trimethyl-1H-pyrazolo[3,4-b]pyridin-6-yl)-4a,5,8,8a-tetrahydro-2H-phthalazin-1-one], the IC50 in data set [1] was 21.9 nM; in data set [2], 41.7 nM.
For `COc1ccc(C2=NN(c3nc(-c4cccs4)ns3)C(=O)[C@H]3CC=CC[C@@H]23)cc1Cl` (relative stereo) [Compound 18, (cis)-4-(3-Chloro-4-methoxy-phenyl)-2-(3-thiophen-2-yl-[1,2,4]thiadiazol-5-yl)-4a,5,8,8a-tetrahydro-2H-phthalazin-1-one], in that order: 23.4 nM and 77.6 nM.
In turn, `COc1ccc(C2=NN(C3CCN(C(=O)N4CCNC4=O)CC3)C(=O)[C@H]3CC=CC[C@@H]23)cc1Cl` (relative stereo) [Compound 22, cis-4-(3-Chloro-4-methoxy-phenyl)-2-{1-[1-(2-oxo-imidazolidin-1-yl)-methanoyl]-piperidin-4-yl}-4a,5,8,8a-tetrahydro-2H-phthalazin-1-one] came in with a melting point of 216 to 218 °C.
